These results are taken from patent publication US8022178B2, “Modified self-assembling peptides” (Massachusetts Institute of Technology, priority 2006, dated 2011).

Entries after “also recorded” stand apart in the source; their conditions may differ.

The subject of data set [1] is HUVEC (human umbilical vein endothelial cells). Description: HUVEC cultured 2-dimensionally on hydrogels: cell attachment and morphology. Details: key to Capillary like morphology: weak: +; medium: ++; strong: +++; very strong: ++++. To be noted: HUVEC cultured on hydrogels. Format: cell-based. The method, then:
The effect of functional modified peptide matrix to HUVEC (human umbilical vein endothelial cells) was evaluated by culturing cells 2-dimensionally on the gel.
The peptide solutions shown in Table 19 were loaded in the culture inserts (10 mm diameter, Millicell-CM, Millipore) and gels were formed using cell culture medium (EGM-2-MV, Camblex). Collagen-1 and Matrigel were used as control matrices. HUVEC (human umbilical vein endothelial cells) were plated at 8×10^4 cells on the inserts and cultured up to 7 Days.

For data set [2] the test system is unchanged. As to the kind of experiment: HUVEC cell attachment on hydrogels based on various self-assembling sequence. The settings on record: HUVEC cultured for three days. The method, then: Cell attachment and viability of the hydrogels were evaluated using HUVEC (human umbilical vein endothelial cells). The peptide solutions shown in Table 22 were loaded in the culture inserts (10 mm diameter, Millicell-CM, Millipore) and gels were formed using cell culture medium (EGM-2-MV, Camblex). HUVEC were plated at 8×10^4 cells on the inserts and cultured for three days.
This implies that functionalization of the self-assembling peptide is useful regardless of the basic repetitive sequence, while the properties of hydrogel can be controlled by altering basic repetitive sequence in amino acid and length.

Data set [3] has the same test system. As to the kind of experiment: HUVEC culture on bFGF loaded peptide matrix. It counts as cell-based. The settings on record: Day 3; bFGF loaded matrix compared to negative and positive control; FIG. 21. The method, then: (§1) The effect of protein retention and delivery using the self-assembling peptide were studied (Table 11). bFGF was used as a model protein. The retention of bFGF in different peptide matrix in different charge condition was measured by ELISA after washing by PBS. After washing out unbound bFGF, the effect of protein retention to self-assembling peptide matrix were evaluated the using cell culturing of HUVEC (human umbilical vein endothelial cells).
The peptide solutions provided in Table 12 were loaded in the culture inserts (10 mm diameter, Millicell-CM, Millipore) and gels were formed using PBS. After gelation, bFGF solution in PBS was added inside and outside and plated for overnight. bFGF was loaded at 175 ng/insert. After loading bFGF, the PBS inside and outside the inserts were exchanged three times (2 hours, 9 hours and 12 hours) to remove unbound bFGF (Washing). […]
Cell culturing using cell culture medium (EGM-2-MV) was used without attached growth factor on peptide matrix as negative control. […] The bFGF concentration in washing buffer (PBS) and cell culture medium (EGM-2-MV) was measured using ELISA. […] Growth factor retention rate was calculated by accumulating the amount of measured bFGF. […]

Data set [4] has as its target bFGF (Homo sapiens, UniProt P09038). As to the kind of experiment: bFGF retention in peptide matrix (ELISA). The settings on record: bFGF 175 ng/insert loaded after gelation; during PBS washing and culturing; FIG. 19. The method, then: as §1
The peptide solutions provided in Table 12 were loaded in the culture inserts (10 mm diameter, Millicell-CM, Millipore) and gels were formed using PBS. After gelation, bFGF solution in PBS was added inside and outside and plated for overnight. bFGF was loaded at 175 ng/insert. After loading bFGF, the PBS inside and outside the inserts were exchanged three times (2 hours, 9 hours and 12 hours) to remove unbound bFGF (Washing). After the washing, the PBS was exchanged to the cell culture medium (EGM-2-MV, Camblex) without attached growth factor (bFGF, VEGF and EGF) and placed more than a day (such that the fluid contained in the gel is exchanged from PBS to cell culture medium), then HUVEC (human umbilical vein endothelial cells) were plated at 7.5×10^4 cells on the inserts and cultured for three days.
Cell culturing using cell culture medium (EGM-2-MV) was used without attached growth factor on peptide matrix as negative control. Cell culturing using cell culture medium (EGM-2-MV) was used with attached growth factor on peptide matrix without loading growth factor as positive control. The bFGF concentration in washing buffer (PBS) and cell culture medium (EGM-2-MV) was measured using ELISA. The washing buffer and cell culture medium were exchanged at each measurement period (2 hours, 9 hours and 12 hours for washing, and at the cell seeding (D0), Day 1 (D 1), Day 2 (D2) and Day 3 (D3)). Growth factor retention rate was calculated by accumulating the amount of measured bFGF.
A general note: An ELISA detects its analyte on a solid surface through an enzyme-linked reagent.

The nature of data set [5]: pI and charge of the self-assembling peptide. Format: physicochemical. The method, then: (§2) A comparison of the pH dependent property of 1% Ac(RADA)4GGFHRRIKA CONH2 (SEQ ID NO. 6) solution (Code: FHR), self assembling peptide sequence was compared with the heparin-binding motif. FIG. 12 depicts the isoelectric plot and corresponding rheological data when 0.1 N NaOH solution is added to FHR solution to adjust pH. The net charge of the peptide molecule is kept ≧2 when pH<10. Until at point of pH 5.7, the solution keeps viscous state. This movement of pH point where the peptide solution become gel is controlled by the charge induced by the additional motif to the self-assembling peptide. The induced charge prevents the peptide to aggregate to form the gel. Thus, the cell and the peptide solution can be mixed near neutral pH. After complete mixing, the gel formation can be made by adding salt containing solution (e.g., a solution containing a gellation agent or an iso-osmotic solute).
FIG. 18 depicts the isoelectric plot and Rheological data of PFS 1% solution when 0.1 N NaOH solution is added. 1% Ac(RADA)4GGSKPPGTSS-CONH2 solution (Code: SKP, peptide sequence: SEQ ID NO. 7) is a hydrogel composed of peptides with a self-assembling sequence and positively-charged functional motif. Although the pI value of the peptide is 9.74 and it keeps positive charge at near pH 7 range, the gel is formed at the point of pH 4.5. This is because the charge of the molecule around pH 7 range is +1 and smaller than the charge of Ac(RADA)4GGFHRRIKA CONH2 (FHR) (bigger than 3). The charge of the whole peptide should be larger than 2 when the cell is mixed. This pH should be somewhere in 6-8 in order to minimize the damage to the cells. As this sequence is heparin-binding motif, the fiber can attach to the heparin molecule which is abundant at cell surface. This heparin-binding motif provides a specific anchor to the cell. As described in Example 1, this binding synergistically works with the other binding motif (e.g., RGD) to induce biological stimuli for cell proliferation and differentiation. This effect is not limited to the sequences previously describe, but the other motifs, including -XBBXBX- and -XBBBXXBX- sequences. […]

Data set [6] concerns chondrocytes. To be noted: encapsulated chondrocytes (Kisiday 2002); cited from earlier work.
Data set [7] in a line: Isoelectric plot and rheological data when 0.1 N NaOH is added (pH of gel formation). It counts as physicochemical. To be noted: 1% solution, 0.1 N NaOH solution added.
From the text: At the point of pH 3.6, the viscous solution become gel and has a higher G′ (stiffness), G″ (viscosity) value. When the pH is increased, the gel breaks into small pieces and it becomes a solution with precipitated peptides. At lower pH, the peptide forms fibers and the fibers make the solution viscous. When the pH becomes higher, and approaches the pI value, the peptide fibers lose their charge and aggregate to form gel. The same gel formation happens when the peptide charge is screened by salts in a salt-containing solution (e.g., a solution containing a gellation agent or an iso-osmotic solute). Once the gel is formed, the fiber structure is broken into pieces to form a precipitate particle.
as §2
FIG. 18 depicts the isoelectric plot and Rheological data of PFS 1% solution when 0.1 N NaOH solution is added. 1% Ac(RADA)4GGSKPPGTSS-CONH2 solution (Code: SKP, peptide sequence: SEQ ID NO. 7) is a hydrogel composed of peptides with a self-assembling sequence and positively-charged functional motif. Although the pI value of the peptide is 9.74 and it keeps positive charge at near pH 7 range, the gel is formed at the point of pH 4.5. […]

Data set [8] concerns MC3T3-E1 cells. Description: Confocal microscopy of cells cultured on different functional peptide (DSG) concentration. It counts as cell-based, mouse.
A short description of data set [9]: Gel stiffness of hydrogel. Format: physicochemical. The settings on record: compared to RAD.
The test system of data set [10] is MC3T3-E1 cells. As to the kind of experiment: Effect of RAD:DSG mixture ratio on cell proliferation (DNA contents, 7 days). Format: cell-based, mouse. To be noted: RAD:DSG mixture ratio varied from 100:0 to 0:100, FIG. 8. The method, then:
Effect of a mixture of self-assembling sequence peptide (e.g., 1% RAD16-1 peptide solution) and a functionalized peptide (SEQ ID NO. 7) with self-assembling sequence (RADA) (SEQ ID NO. 67) and functional motif (RGD), was evaluated (Tables 8-9) SEQ ID NO. 7 has an additional Glycine at the N-terminus (compared to SEQ ID NO. 4), which causes an increase in hydrophobicity of the hydrogel. Biologically SEQ ID NO. 4 and SEQ ID NO. 7 are considered to have similar effects.
Hydrogels were prepared so that the mixture ratio of RAD and DSG was varied from 100:0 to 0:100 (FIG. 8). Cells were prepared and seeded as described in Example 1. Cells were cultured on hydrogels for 7 days. Cell proliferation was evaluated using DNA contents in the hydrogel as same as Example 1.

Chain of bFGF (P09038 143-288, species assumed): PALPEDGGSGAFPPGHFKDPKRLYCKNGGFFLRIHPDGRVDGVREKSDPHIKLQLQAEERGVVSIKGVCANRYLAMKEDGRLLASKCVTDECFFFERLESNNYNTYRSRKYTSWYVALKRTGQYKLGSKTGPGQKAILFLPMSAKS

On to “Ac(RADA)4GGPFSSTKT-CONH2 (Ac-RADARADARADARADAGGPFSSTKT-NH2) [Bone marrow homing; PFS = 1% peptide solution]”, for which, in data set [1], the Capillary like morphology result is reported as “+” and the Cell attachment entry is “++ (++: 20-50%)”. Take AcIEIKIEIKIGGPFSSTKT-CONH2 [EPFS]: the Cell attachment result in [2] is reported as “+ (+: Weak(<20%))”. For the substance “Ac(RADA)4GGDGRGDSVAYG-CONH2 (Ac-RADARADARADARADAGGDGRGDSVAYG-NH2) [SEQ ID NO. 5, Cell adhesion domain (Osteopontin); DGR-2P = 2% solution]”, the “cell attachment and cell spread” value in [3] is recorded as “superior”. In addition, the “bFGF (growth factor) retention rate” value in [4] is given as “high in the order of KFQ-2P, FHR-2P, RAD-2P then DGR-2P”. Also, in data set [5], the charge entry was “negatively charged” and the pI is 4.78,. Ac-IEIKIEIKI-NH2 [reference compound]: the Cell attachment result in data set [2] is given as “++ (++: 20-50%)”. On to “AcNKLDLKLDLKLDL-CONH2 (Ac-KLDLKLDLKLDL-NH2; not fully specified) [KLD12]”, for which the “chondrocyte phenotype and ECM” value in data set [6] was “retained their morphology and developed a cartilage-like, mechanically functional ECM rich in proteoglycans and type-II collagen”. For “Ac(RADA)4GGSKPPGTSS-CONH2 (Ac-RADARADARADARADAGGSKPPGTSS-NH2) [Bone marrow homing; SKP = 1% solution]”, the “pH at which the viscous peptide solution becomes gel” value in data set [7] worked out at 4.5. Moreover, in [5], the pI is recorded as 9.74. For the same substance, the “charge of the molecule around pH 7 range” value in data set [5] (around pH 7) was “+1”.

Regarding “Ac(RADA)4GPRGDSGYRGDSG-CONH2 (Ac-RADARADARADARADAGPRGDSGYRGDSG-NH2) [DSG = 1% solution]”, the “cell location on the peptide matrix” value in data set [8] (DSG ratio 10%, FIG. 9A) was “stayed on the surface of the peptide matrix”. The “cell migration into the matrix” value in [8] (DSG ratio 70%, FIG. 9B) was “up to 300 um”. Further, the gel stiffness entry in data set [9] is listed as “less stiff gel; also recorded: lower stiffness gel”. Further, the “Cell proliferation (fluorescence intensity linear to the DNA contents)” value in data set [10] was “drop in fluorescence and drop”. As for AcIEIKIEIKIGGPRGSYRGDS-CONH2 [EPRG], the Cell attachment result in data set [2] was “++++ (++++: near confluence(>70%))”.

AcIEIKIEIKIGGSKPPGTS-CONH2 [ESKP]: the Cell attachment result in [2] was “+ (+: Weak(<20%))”. The same measure, in the same setting: the same measure for AcFKFQFKFQFKFQGPRGDSGYRGDS-CONH2 [KPRG]: “++++ (++++: near confluence(>70%))”.
